According to publication PMC6035881 (Antiviral Research, 2018):
Several values for one entry are separate records, joined by “and”; a condition that tells them apart may be missing. Identical values can stand only once.

Key:
RVFV [1] = details: in vivo; cited from earlier work
[2] = hamster, in vivo, ip; cited from earlier work
RVFV [3] = details: cited from earlier work
[4] = system: more than 20 different viruses across eight different virus families; details: read-out: in vitro antiviral potency EC50; cited from earlier work
RVFV (strain ZH501) [5] = system: RVFV (strain ZH501); design: species or system Syrian golden hamsters; details: hamster, in vivo, ip
RVFV (MP-12 strain) [6] = system: RVFV (MP-12 strain)
RVFV (strain ZH501) [7] = system: RVFV (strain ZH501); design: species or system Syrian golden hamsters; details: hamster, in vivo
RVFV (MP-12 strain) [8] = experiment: microbe, parasite or virus in culture; details: Rift Valley fever virus, Vero 76, 120 h, read-out: EC50 (CPE reduction assay)
RVFV (strain ZH501) [9] = system: RVFV (strain ZH501); design: species or system Syrian golden hamsters; details: hamster, in vivo; remark: listed apart in the source
RVFV (MP-12 strain) [10] = experiment: microbe, parasite or virus in culture; details: Rift Valley fever virus, Vero 76, read-out: EC90 (VYR)
RVFV (MP-12 strain) [11] = system: RVFV (MP-12 strain); remark: listed apart in the source
in vitro = details: African green monkey
RVFV [12] = details: hamster, in vivo; cited from earlier work

Structure (SMILES): Nc1ncnc2c([C@@H]3N[C@H](CO)[C@@H](O)[C@H]3O)c[nH]c12 [Galidesivir]
- protection in mouse model of RVFV infection (RVFV [1]): partial protection
- maximum tolerated dose [2]: 200 mg/kg/day
- EC50 (RVFV [3]): 41.6 µM
- EC90 (RVFV [3]): 98 µM
- EC50 [4]: < 50 µM
- levels of virus across all tissues and serum, day 2 p.i. (RVFV (strain ZH501) [5]): undetectable
- SI (CC50/EC90) (RVFV (MP-12 strain) [6]): 7.6
- RVFV in serum, spleen or brain on day 2 p.i. (RVFV (strain ZH501) [7]): undetectable
- animals with detectable viral load in the liver on day 2 p.i. (RVFV (strain ZH501) [7]): only a single animal
- EC50 (RVFV (MP-12 strain) [8]): 54 µg/mL and 20.4 µM
- animals surviving the lethal RVFV challenge (RVFV (strain ZH501) [9]): 70%
- protection from mortality (RVFV (strain ZH501) [9]): up to 70%
- EC90 (RVFV (MP-12 strain) [10]): 37 µg/mL and 13.9 µM
- SI (CC50/EC50) (RVFV (MP-12 strain) [11]): 5.2
- CC50 (in vitro): 280 µg/mL and 106 µM

Structure (SMILES): NC(=O)c1ncn([C@@H]2O[C@H](CO)[C@@H](O)[C@H]2O)n1 [Ribavirin, reference compound]
- virus in day 2 serum and tissue samples (RVFV (strain ZH501) [7]): devoid of virus
- survival (RVFV (strain ZH501) [9]): 30%

Structure (SMILES): NC(=O)c1nc(F)c[nH]c1=O [favipiravir]
- hamsters protected from lethal RVFV challenge (RVFV [12]): 70–80%
